Experimental data published in patent US20090149531A1, “CHEMICAL COMPOSITION DERIVED FROM P-HYDROXYPHENYL PROPIONIC ACID FOR THE TREATMENT OF PSORIASIS” (APOTEKNOS PARA LA PIEL, S.L., priority 2007, published 2009).
“And” between values parts separate entries of the source, which are not always exact repeats. Identical values can stand only once.

Legend:
[1] = Permeability study, pig ear skin in Franz cell; type: in vitro ADME; details: hydroalcoholic solution 63.6 μg/ml or 6.36 μg/ml
Method: Skin from pig ears was used as the experimental system to which a hydroalcoholic solution of compound A 6.36×10^−2 mg/ml and 6.36×10^−3 mg/ml was applied, the reference product being a control hydroalcoholic solution (without compound A). For this study 4 different hydroalcoholic solutions were prepared. The first included 6.36 μg/ml of compound A, the second included 63.6 μg/ml, and the third and fourth were control solutions without compound A. All the preparations were tested on the pig ear skin experimental system. Samples were taken in the diffuser compartment at 6 different times (0, 1, 2, 6, 12 and 24 hours). All the samples (recipients) were quantified by HPLC. FIG. 1. Concentration of compound A in the recipient of the Franz cell for a sample with a concentration of 63.6 μg/ml of A. FIG. 2. Concentration of compound A in the recipient of the Franz cell for a sample with a concentration of 6.36 μg/ml of A.

[2] = tested on: Salmonella typhimurium TA100; assay: Ames test without external metabolisation, TA100; type: cell-based; details: no metabolic activation; for Colonies per plate: individual plates 1-4, A; for Colonies per plate / Colonies per plate, Mean: 48 hours; for Mutagenic Ind,: relative to H+/B+
Method: (§1) The mutagenic activity of compound A was evaluated using the Ames test without external metabolisation. The Ames test is based on the use of bacterial strains to detect mutations in the DNA in vitro using bacterial strains that make it possible to detect types of damage to the genome.
(§2) Bacteria of 4 strains of Salmonella typhimurium that are internationally recommended for this test, TA1535, TA1537, TA98 and TA100, were used. The test was carried out according to highly standardised protocols. […] The test was carried out without external metabolic activation. The plates were incubated at 37° C. and the reverting colonies were counted after 48 hours.

[3] = tested on: Salmonella typhimurium TA1535; assay: Ames test without external metabolisation, TA1535; type: cell-based; details: no metabolic activation; for Colonies per plate: individual plates 1-4, A; for Colonies per plate / Colonies per plate, Mean: 48 hours; for Mutagenic Ind,: relative to H+/B+
Method: as §1, §2

[4] = tested on: Salmonella typhimurium TA1537; assay: Ames test without external metabolisation, TA1537; type: cell-based; details: no metabolic activation; for Colonies per plate: individual plates 1-4; for Colonies per plate / Colonies per plate, Mean: 48 hours; for Mutagenic Ind,: relative to H+/B+
Method: as §1, §2

[5] = tested on: cell hyperproliferation in hairless rats; assay: Model of desquamation in hairless rats: corneous material extracted; type: in vivo; details: for amount of corneous material extracted, total sum of the right and left flanks, Portal No, 1 / amount of corneous material extracted, total sum of the right and left flanks, Portal No, 2 / amount of corneous material extracted, total sum of the right and left flanks, Portal No, 3 / amount of corneous material extracted, total sum of the right and left flanks, Portal No, 4 / amount of corneous material extracted, total sum of the right and left flanks, Portal No, 5 / amount of corneous material extracted, total sum of the right and left flanks, Portal No, 6: day 11
Method: The activity of compound A on cell hyperproliferation in hairless rats was evaluated using the model of desquamation in hairless rats described in the publication: Bräutigam, M., Hübner, H., Rach, P., Thieroff-Ekerdi, R. “Effects of Calcipotriol (MC 903) and Calcitriol after Topical Application on the Skin of Hairless Rats”, Skin Pharmacol 1992; 5:87-92.
(§3) To do this Calcitriol was used as the reference product at 0.01% and compound A was used as the test product at 1% and 0.1% (100 μg/cm^2 and 10 μg/cm^2, respectively). A Control Group was included, administered only with the vehicle (absolute ethanol).
The animals were randomly distributed into the following experimental groups:
(§4) The treatments were administered topically, once a day for 10 days (100 μg/side/animal). The animals were weighed on a daily basis throughout the study and the grade of erythema was evaluated (0=Absence of erythema, 1=Low grade erythema, 3=High grade erythema). On the last day of the study, day 11, the amount of corneous material extracted from the epidermis of the animals was evaluated.

[6] = Assessment of erythema in the hairless rat study; type: in vivo, hairless rats; details: 0=absence, 1=low grade, 3=high grade
Method: as §3, §4

[7] = Body weight in the hairless rat study; type: in vivo, hairless rats
Method: as §3, §4

[8] = Signs of toxicity and deaths in the hairless rat study; type: in vivo; details: compound A at 1%, topical
Method: A Control Group was included, administered only with the vehicle (absolute ethanol).
as §4

[9] = Compound A 0.1% (10 μg/cm^2) topical once a day for 10 days
[10] = Compound A 1% (100 μg/cm^2) topical once a day for 10 days
[11] = Compound A 0.1% topical once a day, Baseline
[12] = Compound A 0.1% topical once a day, Day 2
[13] = Compound A 0.1% topical once a day, Day 3
[14] = Compound A 0.1% topical once a day, Day 4
[15] = Compound A 0.1% topical once a day, Day 5
[16] = Compound A 0.1% topical once a day, Day 6
[17] = Compound A 0.1% topical once a day, Day 7
[18] = Compound A 0.1% topical once a day, Day 8
[19] = Compound A 0.1% topical once a day, Day 9
[20] = Compound A 0.1% topical once a day, Day 10
[21] = Compound A 0.1% topical once a day, Day 11
[22] = Compound A 1% topical once a day, Baseline
[23] = Compound A 1% topical once a day, Day 2
[24] = Compound A 1% topical once a day, Day 3
[25] = Compound A 1% topical once a day, Day 4
[26] = Compound A 1% topical once a day, Day 5
[27] = Compound A 1% topical once a day, Day 6
[28] = Compound A 1% topical once a day, Day 7
[29] = Compound A 1% topical once a day, Day 8
[30] = Compound A 1% topical once a day, Day 9
[31] = Compound A 1% topical once a day, Day 10
[32] = Compound A 1% topical once a day, Day 11

C=C1C(=O)O[C@H](CCc2ccc(OC)cc2)[C@@H]1C [Compound A]
amount of compound A dissolved in the recipient ([1]; samples at 0-24 hours, HPLC quantification limit): < 0.01 mg/mL
transdermal flow through the skin of the pig ear ([1]; up to 24 hours): no transdermal flow
Colonies per plate ([2]; Comp. A 10 μg/ml): 38 and 41 and 44 and 54
Colonies per plate, Mean ([2]; Comp. A 10 μg/ml): 44.25
Mutagenic Ind, ([2]; Comp. A 10 μg/ml): 0.9124
Colonies per plate ([2]; Comp. A 100 μg/ml): 45 and 35 and 31 and 51
Colonies per plate, Mean ([2]; Comp. A 100 μg/ml): 40.5
Mutagenic Ind, ([2]; Comp. A 100 μg/ml): 0.8351
Colonies per plate ([2]; Comp. A 1 mg/ml): 52 and 37 and 38 and 40
Colonies per plate, Mean ([2]; Comp. A 1 mg/ml): 44
Mutagenic Ind, ([2]; Comp. A 1 mg/ml): 0.9072
Ames test result (mutagenic effects) ([2]; TA100, concentrations evaluated 10 μg/ml to 1 mg/ml): negative
Colonies per plate ([3]; Comp. A 10 μg/ml): 1 (2×) and 2 and 0
Colonies per plate, Mean ([3]; Comp. A 10 μg/ml): 1
Mutagenic Ind, ([3]; Comp. A 10 μg/ml): 0.5
Colonies per plate ([3]; Comp. A 100 μg/ml): 1 (2×) and 2 and 0
Colonies per plate, Mean ([3]; Comp. A 100 μg/ml): 1
Mutagenic Ind, ([3]; Comp. A 100 μg/ml): 0.5
Colonies per plate ([3]; Comp. A 1 mg/ml): 1 (2×) and 0 and 2
Colonies per plate, Mean ([3]; Comp. A 1 mg/ml): 1
Mutagenic Ind, ([3]; Comp. A 1 mg/ml): 0.5
Ames test result (mutagenic effects) ([3]; TA1535, concentrations evaluated 10 μg/ml to 1 mg/ml): negative
Colonies per plate ([4]; Comp. A 10 μg/ml, A): 0 (3×) and 1
Colonies per plate, Mean ([4]; Comp. A 10 μg/ml): 0.25
Mutagenic Ind, ([4]; Comp. A 10 μg/ml): 0.5
Colonies per plate ([4]; Comp. A 100 μg/ml, A): 0 (2×) and 1 and 2
Colonies per plate, Mean ([4]; Comp. A 100 μg/ml): 0.75
Mutagenic Ind, ([4]; Comp. A 100 μg/ml): 1.5
Colonies per plate ([4]; Comp. A 1 mg/ml): 0
Colonies per plate, Mean ([4]; Comp. A 1 mg/ml): 0
Mutagenic Ind, ([4]; Comp. A 1 mg/ml): 0
Ames test result (mutagenic effects) ([4]; TA1537, concentrations evaluated 10 μg/ml to 1 mg/ml): negative
amount of corneous material extracted, total sum of the right and left flanks, Portal No, 1 [5, 9]: 3.1 ± 0.17 mg
amount of corneous material extracted, total sum of the right and left flanks, Portal No, 2 [5, 9]: 1.7 ± 0.08 mg
amount of corneous material extracted, total sum of the right and left flanks, Portal No, 3 [5, 9]: 1.1 ± 0.14 mg
amount of corneous material extracted, total sum of the right and left flanks, Portal No, 4 [5, 9]: 1.1 ± 0.22 mg
amount of corneous material extracted, total sum of the right and left flanks, Portal No, 5 [5, 9]: 1.1 ± 0.28 mg
amount of corneous material extracted, total sum of the right and left flanks, Portal No, 6 [5, 9]: 8.1 ± 0.47 mg
amount of corneous material extracted, total sum of the right and left flanks, Portal No, 1 [5, 10]: 3.1 ± 0.75 mg
amount of corneous material extracted, total sum of the right and left flanks, Portal No, 2 [5, 10]: 2.7 ± 0.23 mg
amount of corneous material extracted, total sum of the right and left flanks, Portal No, 3 [5, 10]: 2.0 ± 0.26 mg
amount of corneous material extracted, total sum of the right and left flanks, Portal No, 4 [5, 10]: 1.4 ± 0.169 mg
amount of corneous material extracted, total sum of the right and left flanks, Portal No, 5 [5, 10]: 1.4 ± 0.23 mg
amount of corneous material extracted, total sum of the right and left flanks, Portal No, 6 [5, 10]: 12.6 ± 0.76 mg
effect on the animals' skin (corneous material extracted) ([5]; compound A at 0.1%, topical): no effect
amount of corneous material extracted in relation to the control group and compound A at 0.1% ([5]; compound A at 1%, Student Newman Keuls, p<0.01): statistically significant differences
Assessment of erythema (mean grade) [6, 11]: 0.0 ± 0.00
Assessment of erythema (mean grade) [6, 12]: 0.0 ± 0.00
Assessment of erythema (mean grade) [6, 13]: 0.0 ± 0.00
Assessment of erythema (mean grade) [6, 14]: 0.0 ± 0.00
Assessment of erythema (mean grade) [6, 15]: 0.0 ± 0.00
Assessment of erythema (mean grade) [6, 16]: 0.0 ± 0.00
Assessment of erythema (mean grade) [6, 17]: 0.0 ± 0.00
Assessment of erythema (mean grade) [6, 18]: 0.0 ± 0.00
Assessment of erythema (mean grade) [6, 19]: 0.0 ± 0.00
Assessment of erythema (mean grade) [6, 20]: 0.0 ± 0.00
Assessment of erythema (mean grade) [6, 21]: 0.0 ± 0.00
Assessment of erythema (mean grade) [6, 22]: 0.0 ± 0.00
Assessment of erythema (mean grade) [6, 23]: 1.0 ± 0.00
Assessment of erythema (mean grade) [6, 24]: 1.0 ± 0.00
Assessment of erythema (mean grade) [6, 25]: 1.2 ± 0.11
Assessment of erythema (mean grade) [6, 26]: 1.3 ± 0.17
Assessment of erythema (mean grade) [6, 27]: 1.5 ± 0.22
Assessment of erythema (mean grade) [6, 28]: 1.5 ± 0.22
Assessment of erythema (mean grade) [6, 29]: 1.2 ± 0.40
Assessment of erythema (mean grade) [6, 30]: 0.9 ± 0.15
Assessment of erythema (mean grade) [6, 31]: 0.9 ± 0.15
Assessment of erythema (mean grade) [6, 32]: 1.2 ± 0.17
Body weight [7, 11]: 0.0 ± 0.00 g
Body weight [7, 12]: 0.0 ± 0.00 g
Body weight [7, 13]: 0.0 ± 0.00 g
Body weight [7, 14]: 0.0 ± 0.00 g
Body weight [7, 15]: 0.0 ± 0.00 g
Body weight [7, 16]: 0.0 ± 0.00 g
Body weight [7, 17]: 0.0 ± 0.00 g
Body weight [7, 18]: 0.0 ± 0.00 g
Body weight [7, 19]: 0.0 ± 0.00 g
Body weight [7, 20]: 0.0 ± 0.00 g
Body weight [7, 21]: 0.0 ± 0.00 g
Body weight [7, 22]: 0.0 ± 0.00 g
Body weight [7, 23]: 1.0 ± 0.00 g
Body weight [7, 24]: 1.0 ± 0.00 g
Body weight [7, 25]: 1.2 ± 0.11 g
Body weight [7, 26]: 1.3 ± 0.17 g
Body weight [7, 27]: 1.5 ± 0.22 g
Body weight [7, 28]: 1.5 ± 0.22 g
Body weight [7, 29]: 1.2 ± 0.40 g
Body weight [7, 30]: 0.9 ± 0.15 g
Body weight [7, 31]: 0.9 ± 0.15 g
Body weight [7, 32]: 1.2 ± 0.17 g
signs of toxicity [8]: none of the animals presented signs of toxicity
